Data as given in ChEMBL document CHEMBL5260828, “Amphiphilic glycoconjugates as potential anti-cancer chemotherapeutics” (Eur J Med Chem, 2018).
Values after ≈ are worked out from the molar mass of the structure shown.

Experiments:
Jurkat [1] = test: Cytotoxicity against human Jurkat cells incubated for 16 hrs by MTS colorimetric assay; format: functional, cell-based
Colon 26 = test: Cytotoxicity against mouse Colon 26 cells incubated for 3 days by MTT assay; format: functional, cell-based; settings: Colon 26, 72 h
L1210 = test: Cytotoxicity against mouse L1210 cells incubated for 3 days by MTT assay; format: functional, cell-based; settings: L1210, 72 h
HL-60 = test: Cytotoxicity against human HL-60 cells assessed as inhibition of cell growth incubated for 22 hrs by MTS spectrophotometric assay; format: functional, cell-based; settings: HL-60, 22 h
THP-1 = test: Cytotoxicity against human THP-1 cells assessed as inhibition of cell growth incubated for 22 hrs by MTS spectrophotometric assay; format: functional, cell-based; settings: THP-1, 22 h
[2] = Cytotoxicity against mouse WEHI-231 cells assessed as cell growth inhibition incubated for 144 hrs by MTT assay; format: functional, cell-based; settings: WEHI231, 144 h
MCF7 = test: Cytotoxicity against human MCF7 cells assessed as cell growth inhibition incubated for 144 hrs by MTT assay; format: functional, cell-based; settings: MCF7, 144 h
HFF = test: Cytotoxicity against human HFF cells; format: functional, cell-based
MRC5 = test: Cytotoxicity against human MRC5 cells; format: functional, cell-based
SW480 = test: Cytotoxicity against human SW480 cells; format: functional, cell-based
HT-29 = test: Cytotoxicity against human HT-29 cells; format: functional, cell-based
SAOS-2 = test: Cytotoxicity against human SAOS-2 cells; format: functional, cell-based
DLD-1 = test: Cytotoxicity against human DLD-1 cells; format: functional, cell-based
NCI-H460 = test: Cytotoxicity against human NCI-H460 cells; format: functional, cell-based
Jurkat [3] = test: Cytotoxicity against human Jurkat cells incubated for 18 hrs by MTS assay; format: functional
NCI-H292 = test: Growth inhibition in human NCI-H292 cells incubated for 2 days by calcein-AM/pluronic F127 based fluorescence plate reader; format: functional; settings: NCI-H292, 48 h, time 2 day
A549 = test: Antiproliferative activity against human A549 cells assessed as inhibition of cell proliferation incubated for 48 hrs by SRB assay; format: functional, cell-based; settings: A549, 48 h
HBL-100 = test: Antiproliferative activity against human HBL-100 cells assessed as inhibition of cell proliferation incubated for 48 hrs by SRB assay; format: functional, cell-based; settings: HBL-100, 48 h
HeLa = test: Antiproliferative activity against human HeLa cells assessed as inhibition of cell proliferation incubated for 48 hrs by SRB assay; format: functional, cell-based
SW1573 = test: Antiproliferative activity against human SW1573 cells assessed as inhibition of cell proliferation incubated for 48 hrs by SRB assay; format: functional, cell-based; settings: SW1573, 48 h
T47D = test: Antiproliferative activity against human T47D cells assessed as inhibition of cell proliferation incubated for 48 hrs by SRB assay; format: functional, cell-based
WiDr = test: Antiproliferative activity against human WiDr cells assessed as inhibition of cell proliferation incubated for 48 hrs by SRB assay; format: functional, cell-based

Structure (SMILES): CCCCCCCCCCCCCCCCn1cc(CO[C@@H]2O[C@H](CO)[C@@H](O)[C@H](O)[C@H]2O)nn1
- IC50 (Jurkat [1]): 24 µM

Structure (SMILES): C/C=C(\C)[C@H](O)[C@H](C)/C=C(C)/C=C/C/C(C)=C/Cc1nc(OC)c(OC)c(OC2O[C@H](C)[C@H](O)[C@H](O)[C@@H]2O)c1C (some centres not stated)
- IC50 (Colon 26): 0.81 µg/mL (≈ 1.44 µM)
- IC50 (L1210): 7.91 µg/mL (≈ 14.1 µM)

Structure (SMILES): C[C@@H](N)[C@H](O)CCCCCCCC(=O)CCCCCCCCCCCCCC[C@H](O[C@@H]1O[C@H](CO)[C@H](O)[C@H](O)[C@H]1O)[C@@H](C)N
- IC50 (HL-60): 1.7 µM
- IC50 (THP-1): 1.7 µM

Structure (SMILES): COC[C@@H](C[C@H]1O[C@@](O)([C@H](O)[C@@H]2C[C@H](OC)[C@@H](O)CCC/C=C(C)\C=C\C[C@@H](O[C@H]3O[C@@H](C)[C@H](OC)[C@@H](O)[C@@H]3O)[C@H](C)/C=C(C)/C=C(C)/C=C(\C)C(=O)O2)[C@H](C)[C@@H](O)[C@H]1C)O[C@H]1C[C@](C)(O)[C@@H](O[C@H]2C[C@@H](OC)[C@H](O)[C@@H](C)O2)[C@H](C)O1
- IC50 [2]: 0.02 µM
- IC50 (MCF7): 0.03 µM

Structure (SMILES): C[C@@H](N)[C@H](O)CCCCCCCC(=O)CCCCCCCCCCCCCC[C@H](O)[C@H](N)CO[C@@H]1O[C@H](CO)[C@@H](O)[C@H](O)[C@H]1O
- IC50 (HFF): 3 µg/mL (≈ 4.62 µM)
- IC50 (MRC5): 3 µg/mL (≈ 4.62 µM)
- IC50 (SW480): 3 µg/mL (≈ 4.62 µM)
- IC50 (HT-29): 3 µg/mL (≈ 4.62 µM)
- IC50 (SAOS-2): 3 µg/mL (≈ 4.62 µM)
- IC50 (DLD-1): 3 µg/mL (≈ 4.62 µM)
- IC50 (NCI-H460): 3 µg/mL (≈ 4.62 µM)

Structure (SMILES): CCCCCCCCCCCCn1cc(CO[C@@H]2OC[C@@H](O)[C@H](O)[C@H]2O)nn1
- CC50 (Jurkat [3]): 26 µM

Structure (SMILES): COC[C@@H](C[C@H]1O[C@@](O)([C@H](O)[C@@H]2C[C@H](OC)CCC/C=C(C)/C=C/[C@@H](O[C@@H]3O[C@@H](C)[C@H](OC)[C@@H](O)[C@@H]3O)[C@H](C)/C=C(C)/C=C(C)/C=C(\C)C(=O)O2)[C@H](C)[C@@H](O)[C@H]1C)O[C@H]1C[C@](C)(O)[C@@H](O[C@H]2C[C@@H](OC)[C@H](O)[C@@H](C)O2)[C@H](C)O1
- GI50 (NCI-H292): 0.007 µM

Structure (SMILES): CCCCCCCCN[C@@H]1[C@H](O)[C@@H](O)[C@@H](O)[C@H]2COC(=O)N21
- IC50 (A549): 30 µM
- IC50 (HBL-100): 30 µM
- IC50 (HeLa): 30 µM
- IC50 (SW1573): 30 µM
- IC50 (T47D): 30 µM
- IC50 (WiDr): 30 µM
